{"source": "patent US20230085307A1", "about": "“PYRIDAZINONE COMPOUND AND HERBICIDE” (NISSAN CHEMICAL CORPORATION, priority 2019, published 2023)", "key": {"late watergrass": {"test_system": "late watergrass", "assay": "Test Example 1: herbicidal activity, application before weed generation under submerged conditions (Table 16, symbol A)", "format": "in vivo, late watergrass (Echinochloa oryzicola)", "settings": "amount of applied herbicide 320 g/ha", "outline": "(§1)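 Alluvial soil was flooded to 4 cm depth, weed seeds were sown mixed and 2.5-leaf rice seedlings were transplanted. On sowing day, the compound's emulsion, diluted in water to a set dose, was applied to the water surface. Plants grew at 25–30 °C and were scored 0–5 after three weeks.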"}, "Japanese bulrush": {"test_system": "Japanese bulrush", "assay": "Test Example 1: herbicidal activity, application before weed generation under submerged conditions (Table 16, symbol B)", "format": "in vivo, Japanese bulrush (Schoenoplectus juncoides)", "settings": "amount of applied herbicide 320 g/ha", "outline": "as §1"}, "oval-leafed pondweed": {"test_system": "oval-leafed pondweed", "assay": "Test Example 1: herbicidal activity, application before weed generation under submerged conditions (Table 16, symbol C)", "format": "in vivo, oval-leafed pondweed (Monochoria vaginalis)", "settings": "amount of applied herbicide 320 g/ha", "outline": "as §1"}, "barnyard grass [1]": {"test_system": "barnyard grass", "assay": "Test Example 3: herbicidal effect by foliage application, Wagner pot (Table 18, symbol H)", "format": "in vivo, barnyard grass (Echinochloa crus-galli)", "settings": "344 g/ha", "outline": "(§2)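 Plants were sown in alluvial soil held under 0.1–0.5 cm standing water and grown 14 days in a greenhouse at 25–30 °C. An emulsifiable formulation, water-diluted to the set dose, was then sprayed onto the foliage, and effects were scored three weeks later using previously defined criteria.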"}, "Chinese sprangletop": {"test_system": "Chinese sprangletop", "assay": "Test Example 3: herbicidal effect by foliage application, Wagner pot (Table 18, symbol D)", "format": "in vivo, chinese sprangletop (Leptochloa chinensis)", "settings": "344 g/ha", "outline": "as §2"}, "rice flat sedge": {"test_system": "rice flat sedge", "assay": "Test Example 3: herbicidal effect by foliage application, Wagner pot (Table 18, symbol E)", "format": "in vivo, rice flat sedge (Cyperus iria)", "settings": "344 g/ha", "outline": "as §2"}, "southern crabgrass [2]": {"test_system": "southern crabgrass", "assay": "Test Example 4: herbicidal effect by soil treatment (Table 19, symbol F)", "format": "in vivo, southern crabgrass (Digitaria ciliaris)", "settings": "amount of applied herbicide 320 g/ha", "outline": "(§3)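 Three weeks of greenhouse growth at 25° C. to 30° C. followed a uniform surface spray of water-diluted emulsion at a predetermined herbicide amount. Seeds had been sown beforehand under about 1.5 cm of sterilized diluvial soil. Grading followed criteria set out in an earlier test.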"}, "green foxtail [3]": {"test_system": "green foxtail", "assay": "Test Example 4: herbicidal effect by soil treatment (Table 19, symbol G)", "format": "in vivo, green foxtail (Setaria viridis)", "settings": "amount of applied herbicide 320 g/ha", "outline": "as §3"}, "barnyard grass [4]": {"test_system": "barnyard grass", "assay": "Test Example 4: herbicidal effect by soil treatment (Table 19, symbol H)", "format": "in vivo, barnyard grass (Echinochloa crus-galli)", "settings": "amount of applied herbicide 320 g/ha", "outline": "as §3"}, "wild oat [5]": {"test_system": "wild oat", "assay": "Test Example 4: herbicidal effect by soil treatment (Table 19, symbol I)", "format": "in vivo, wild oat (Avena fatua)", "settings": "amount of applied herbicide 320 g/ha", "outline": "as §3"}, "blackgrass [6]": {"test_system": "blackgrass", "assay": "Test Example 4: herbicidal effect by soil treatment (Table 19, symbol J)", "format": "in vivo, blackgrass (Alopecurus myosuroides)", "settings": "amount of applied herbicide 320 g/ha", "outline": "as §3"}, "Italian ryegrass [7]": {"test_system": "Italian ryegrass", "assay": "Test Example 4: herbicidal effect by soil treatment (Table 19, symbol K)", "format": "in vivo, Italian ryegrass (Lolium multiflorum)", "settings": "amount of applied herbicide 320 g/ha", "outline": "as §3"}, "windgrass [8]": {"test_system": "windgrass", "assay": "Test Example 4: herbicidal effect by soil treatment (Table 19, symbol L)", "format": "in vivo, windgrass (Apera spica-venti)", "settings": "amount of applied herbicide 320 g/ha", "outline": "as §3"}, "velvetleaf [9]": {"test_system": "velvetleaf", "assay": "Test Example 4: herbicidal effect by soil treatment (Table 19, symbol M)", "format": "in vivo, velvetleaf (Abutilon theophrasti)", "settings": "amount of applied herbicide 320 g/ha", "outline": "as §3"}, "redroot pigweed [10]": {"test_system": "redroot pigweed", "assay": "Test Example 4: herbicidal effect by soil treatment (Table 19, symbol N)", "format": "in vivo, redroot pigweed (Amaranthus retroflexus)", "settings": "amount of applied herbicide 320 g/ha", "outline": "as §3"}, "lambsquarters [11]": {"test_system": "lambsquarters", "assay": "Test Example 4: herbicidal effect by soil treatment (Table 19, symbol O)", "format": "in vivo, lambsquarters (Chenopodium album)", "settings": "amount of applied herbicide 320 g/ha", "outline": "as §3"}, "chickweed [12]": {"test_system": "chickweed", "assay": "Test Example 4: herbicidal effect by soil treatment (Table 19, symbol P)", "format": "in vivo, common chickweed (Stellaria media)", "settings": "amount of applied herbicide 320 g/ha", "outline": "as §3"}, "persian speedwell [13]": {"test_system": "persian speedwell", "assay": "Test Example 4: herbicidal effect by soil treatment (Table 19, symbol R)", "format": "in vivo, Persian speedwell (Veronica persica)", "settings": "amount of applied herbicide 320 g/ha", "outline": "as §3"}, "southern crabgrass [14]": {"test_system": "southern crabgrass", "assay": "Test Example 5: herbicidal effect by foliage application, plastic box (Table 20, symbol F)", "format": "in vivo, southern crabgrass (Digitaria ciliaris)", "settings": "amount of applied herbicide 320 g/ha; foliage application after 14-day growth; evaluated three weeks after application", "outline": "(§4)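 Plants sown in sterilized diluvial soil and grown 14 days in a greenhouse at 25° C to 30° C, then sprayed on the foliage with the compound's emulsion diluted in water to a predetermined herbicide amount. Injury to weeds and crops scored three weeks after application on a visual rating scale.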"}, "green foxtail [15]": {"test_system": "green foxtail", "assay": "Test Example 5: herbicidal effect by foliage application, plastic box (Table 20, symbol G)", "format": "in vivo, green foxtail (Setaria viridis)", "settings": "amount of applied herbicide 320 g/ha; foliage application after 14-day growth; evaluated three weeks after application", "outline": "as §4"}, "barnyard grass [16]": {"test_system": "barnyard grass", "assay": "Test Example 5: herbicidal effect by foliage application, plastic box (Table 20, symbol H)", "format": "in vivo, barnyard grass (Echinochloa crus-galli)", "settings": "amount of applied herbicide 320 g/ha; foliage application after 14-day growth; evaluated three weeks after application", "outline": "as §4"}, "wild oat [17]": {"test_system": "wild oat", "assay": "Test Example 5: herbicidal effect by foliage application, plastic box (Table 20, symbol I)", "format": "in vivo, wild oat (Avena fatua)", "settings": "amount of applied herbicide 320 g/ha; foliage application after 14-day growth; evaluated three weeks after application", "outline": "as §4"}, "blackgrass [18]": {"test_system": "blackgrass", "assay": "Test Example 5: herbicidal effect by foliage application, plastic box (Table 20, symbol J)", "format": "in vivo, blackgrass (Alopecurus myosuroides)", "settings": "amount of applied herbicide 320 g/ha; foliage application after 14-day growth; evaluated three weeks after application", "outline": "as §4"}, "Italian ryegrass [19]": {"test_system": "Italian ryegrass", "assay": "Test Example 5: herbicidal effect by foliage application, plastic box (Table 20, symbol K)", "format": "in vivo, Italian ryegrass (Lolium multiflorum)", "settings": "amount of applied herbicide 320 g/ha; foliage application after 14-day growth; evaluated three weeks after application", "outline": "as §4"}, "windgrass [20]": {"test_system": "windgrass", "assay": "Test Example 5: herbicidal effect by foliage application, plastic box (Table 20, symbol L)", "format": "in vivo, windgrass (Apera spica-venti)", "settings": "amount of applied herbicide 320 g/ha; foliage application after 14-day growth; evaluated three weeks after application", "outline": "as §4"}, "velvetleaf [21]": {"test_system": "velvetleaf", "assay": "Test Example 5: herbicidal effect by foliage application, plastic box (Table 20, symbol M)", "format": "in vivo, velvetleaf (Abutilon theophrasti)", "settings": "amount of applied herbicide 320 g/ha; foliage application after 14-day growth; evaluated three weeks after application", "outline": "as §4"}, "redroot pigweed [22]": {"test_system": "redroot pigweed", "assay": "Test Example 5: herbicidal effect by foliage application, plastic box (Table 20, symbol N)", "format": "in vivo, redroot pigweed (Amaranthus retroflexus)", "settings": "amount of applied herbicide 320 g/ha; foliage application after 14-day growth; evaluated three weeks after application", "outline": "as §4"}, "lambsquarters [23]": {"test_system": "lambsquarters", "assay": "Test Example 5: herbicidal effect by foliage application, plastic box (Table 20, symbol O)", "format": "in vivo, lambsquarters (Chenopodium album)", "settings": "amount of applied herbicide 320 g/ha; foliage application after 14-day growth; evaluated three weeks after application", "outline": "as §4"}, "chickweed [24]": {"test_system": "chickweed", "assay": "Test Example 5: herbicidal effect by foliage application, plastic box (Table 20, symbol P)", "format": "in vivo, common chickweed (Stellaria media)", "settings": "amount of applied herbicide 320 g/ha; foliage application after 14-day growth; evaluated three weeks after application", "outline": "as §4"}, "persian speedwell [25]": {"test_system": "persian speedwell", "assay": "Test Example 5: herbicidal effect by foliage application, plastic box (Table 20, symbol R)", "format": "in vivo, Persian speedwell (Veronica persica)", "settings": "amount of applied herbicide 320 g/ha; foliage application after 14-day growth; evaluated three weeks after application", "outline": "as §4"}}}
{"smiles": "CCCC(=O)Oc1c(C)nn(C)c(=O)c1-c1c(-c2ccc(C(=O)OC)cc2)sc2cc(F)c(F)cc12", "note": "[5-028]", "values": [{"measurement": "Herbicidal effect, A: late watergrass", "setting": "late watergrass", "result": "0 (Herbicidal rate of 5% or less (almost no effect))"}, {"measurement": "Herbicidal effect, B: Japanese bulrush", "setting": "Japanese bulrush", "result": "2 (Herbicidal rate of 20% or more and less than 40%)"}, {"measurement": "Herbicidal effect, C: oval-leafed pondweed", "setting": "oval-leafed pondweed", "result": "2 (Herbicidal rate of 20% or more and less than 40%)"}, {"measurement": "herbicidal effect on barnyard grass (H)", "setting": "barnyard grass [1]", "result": "5 (Herbicidal rate of 90% or more (almost completely withered))"}, {"measurement": "herbicidal effect on Chinese sprangletop (D)", "setting": "Chinese sprangletop", "result": "0 (Herbicidal rate of 5% or less (almost no effect))"}, {"measurement": "herbicidal effect on rice flat sedge (E)", "setting": "rice flat sedge", "result": "0 (Herbicidal rate of 5% or less (almost no effect))"}, {"measurement": "F: southern crabgrass, herbicidal effect grade", "setting": "southern crabgrass [2]", "result": "0 (Herbicidal rate of 5% or less (almost no effect))"}, {"measurement": "G: green foxtail, herbicidal effect grade", "setting": "green foxtail [3]", "result": "0 (Herbicidal rate of 5% or less (almost no effect))"}, {"measurement": "H: barnyard grass, herbicidal effect grade", "setting": "barnyard grass [4]", "result": "0 (Herbicidal rate of 5% or less (almost no effect))"}, {"measurement": "I: wild oat, herbicidal effect grade", "setting": "wild oat [5]", "result": "0 (Herbicidal rate of 5% or less (almost no effect))"}, {"measurement": "J: blackgrass, herbicidal effect grade", "setting": "blackgrass [6]", "result": "0 (Herbicidal rate of 5% or less (almost no effect))"}, {"measurement": "K: Italian ryegrass, herbicidal effect grade", "setting": "Italian ryegrass [7]", "result": "0 (Herbicidal rate of 5% or less (almost no effect))"}, {"measurement": "L: windgrass, herbicidal effect grade", "setting": "windgrass [8]", "result": "0 (Herbicidal rate of 5% or less (almost no effect))"}, {"measurement": "M: velvetleaf, herbicidal effect grade", "setting": "velvetleaf [9]", "result": "0 (Herbicidal rate of 5% or less (almost no effect))"}, {"measurement": "N: redroot pigweed, herbicidal effect grade", "setting": "redroot pigweed [10]", "result": "3 (Herbicidal rate of 40% or more and less than 70%)"}, {"measurement": "O: lambsquarters, herbicidal effect grade", "setting": "lambsquarters [11]", "result": "2 (Herbicidal rate of 20% or more and less than 40%)"}, {"measurement": "P: chickweed, herbicidal effect grade", "setting": "chickweed [12]", "result": "1 (Herbicidal rate of 5% or more and less than 20%)"}, {"measurement": "R: persian speedwell, herbicidal effect grade", "setting": "persian speedwell [13]", "result": "1 (Herbicidal rate of 5% or more and less than 20%)"}, {"measurement": "Herbicidal effect by foliage application, F: southern crabgrass", "setting": "southern crabgrass [14]", "result": "0 (Herbicidal rate of 5% or less (almost no effect))"}, {"measurement": "Herbicidal effect by foliage application, G: green foxtail", "setting": "green foxtail [15]", "result": "0 (Herbicidal rate of 5% or less (almost no effect))"}, {"measurement": "Herbicidal effect by foliage application, H: barnyard grass", "setting": "barnyard grass [16]", "result": "0 (Herbicidal rate of 5% or less (almost no effect))"}, {"measurement": "Herbicidal effect by foliage application, I: wild oat", "setting": "wild oat [17]", "result": "0 (Herbicidal rate of 5% or less (almost no effect))"}, {"measurement": "Herbicidal effect by foliage application, J: blackgrass", "setting": "blackgrass [18]", "result": "0 (Herbicidal rate of 5% or less (almost no effect))"}, {"measurement": "Herbicidal effect by foliage application, K: Italian ryegrass", "setting": "Italian ryegrass [19]", "result": "0 (Herbicidal rate of 5% or less (almost no effect))"}, {"measurement": "Herbicidal effect by foliage application, L: windgrass", "setting": "windgrass [20]", "result": "0 (Herbicidal rate of 5% or less (almost no effect))"}, {"measurement": "Herbicidal effect by foliage application, M: velvetleaf", "setting": "velvetleaf [21]", "result": "3 (Herbicidal rate of 40% or more and less than 70%)"}, {"measurement": "Herbicidal effect by foliage application, N: redroot pigweed", "setting": "redroot pigweed [22]", "result": "3 (Herbicidal rate of 40% or more and less than 70%)"}, {"measurement": "Herbicidal effect by foliage application, O: lambsquarters", "setting": "lambsquarters [23]", "result": "3 (Herbicidal rate of 40% or more and less than 70%)"}, {"measurement": "Herbicidal effect by foliage application, P: chickweed", "setting": "chickweed [24]", "result": "5 (Herbicidal rate of 90% or more (almost completely withered))"}, {"measurement": "Herbicidal effect by foliage application, R: persian speedwell", "setting": "persian speedwell [25]", "result": "4 (Herbicidal rate of 70% or more and less than 90%)"}]}
